# ChEMBL document CHEMBL1146148, “Hydroxyl radical scavenging by edaravone derivatives: Efficient scavenging by 3-methyl-1-(pyridin-2-yl)-5-pyrazolone with an intramolecular base” (Bioorg Med Chem Lett, 2006)
# Assay: Hydroxyl radical scavenging activity by ESR spin-trapping method
# Assay type: functional
structure (smiles),measurement,value
CC1=NN(c2ccc([N+](=O)[O-])cc2)C(=O)C1,IC50,500 µM
O=C1CC(C(F)(F)F)=NN1c1ccccc1,IC50,810 µM
CC1=NN(c2ccccc2)C(=O)C1c1ccccc1 (stereo not drawn),IC50,790 µM
CC1=NN(c2ccccc2)C(=O)C1C1CC1 (stereo not drawn),IC50,720 µM
CC1=NN(c2ccccc2)C(=O)C1C(=O)c1ccccc1 (stereo not drawn),IC50,610 µM
CC1=NN(c2ccccn2)C(=O)C1,IC50,18 µM
O=C(NC1=NN(c2ccccc2)C(=O)C1)Oc1ccccc1,IC50,380 µM
CC1=NN(c2ccccc2)C(=O)C1 [EDARAVONE],IC50,250 µM
